The target in one data set is T1, Human PARP-1 enzyme (Homo sapiens, UniProt P09874).
T1 construct: purchased Trevigen
The data set can be described thus: In vitro Scintillation Proximity Assay (SPA) for PARP-1 inhibitory activity. In kind it is biochemical. The note with it: read-out: in vitro SPA assay PARP-1 pIC50 (converted). On the procedure: Compounds of the present invention were tested in an in vitro assay based on SPA technology (proprietary to GE healthcare).
In principle, the assay relies upon the well established SPA technology for the detection of poly(ADP-ribosyl)ation of biotinylated target proteins, i.e histones. This ribosylation is induced using nicked DNA activated PARP-1 enzyme and [^3H]-nicotinamide adenine dinucleotide ([^3H]-NAD^+) as ADP-ribosyl donor.
Histones (type II-A, supplier: Sigma) were biotinylated using the biotinylation kit of Amersham and stored aliquoted at −20° C. A stock solution of 100 mg/ml SPA poly(vinyl toluene) (PVT) beads (supplier: Amersham) was made in PBS. A stock solution of 61.6 nM [^3H]-NAD^+ was made by adding [^3H]-NAD^+ (0.1 mCi/ml, supplier: Perkin Elmer) to incubation buffer (50 mM Tris/HCl, pH 8; 0.2 mM DTT; 4 mM MgCl2). A solution of 4 mM NAD^+ (supplier: Sigma) was made. Human PARP-1 enzyme was obtained from Trevigen. Biotinylated histones and PVT-SPA beads were mixed and pre-incubated for 30 min. at room temperature. PARP-1 enzyme (concentration was lot dependent) was mixed with the nicked DNA and the mixture was pre-incubated for 30 min. at 4° C. Equal parts of this histones/PVT-SPA beads solution and PARP-1 enzyme/DNA solution were mixed and 75 μl of this mixture together with 1 μl of compound in DMSO and 25 μl of [^3H]-NAD^+ was added per well into a 96-well microtiterplate. The final concentrations in the incubation mixture were 2 μg/ml for the biotinylated histones, 2 mg/ml for the PVT-SPA beads, 0.25 μg/ml for the nicked DNA and between 0.1-0.2 μg/ml for the PARP-1 enzyme. After incubation of the mixture for 20 min. at room temperature, the reaction was terminated by adding 100 μl of 4 mM NAD^+ in water (final concentration 2 mM) and plates were mixed. The beads were sedimented by centrifugation (10 min, 800 rpm). and plates transferred to a TopCountNXT™ (Packard) for scintillation counting, values were expressed as counts per minute (cpm). For each experiment, controls (containing PARP-1 enzyme and DMSO without compound), a blank incubation (containing DMSO but no PARP-1 enzyme, no DNA or compound) and samples (containing PARP-1 enzyme, DNA and compound dissolved in DMSO) were run in parallel. All compounds tested were dissolved and eventually further diluted in DMSO. A dose-response curve was made wherein the compounds were tested at concentrations between 10^−5M and 3×10^−9M. In each test, the blank value was subtracted from both the control and the sample values. The control sample represented maximal PARP-1 enzyme activity. For each sample, the amount of cpm was expressed as a percentage of the mean cpm value of the controls. When appropriate, IC50-values (concentration of the drug, needed to reduce the PARP-1 enzyme activity to 50% of the control) were computed using linear interpolation between the experimental points just above and below the 50% level. Herein the effects of test compounds are expressed as pIC50 (the negative log value of the IC50-value). As a reference compound, 4-amino-1,8-naphthalimide was included to validate the SPA assay.

In the next data set the test system is HCT116 cells. Briefly: Antiproliferative activity, Alamar Blue assay, HCT116 cells. It is filed as cell-based, human. Details: key to HCT116 antiproliferative activity pIC50: pIC50 = -log IC50 (IC50: conc. reducing growth to 50% of control). The note with it: for IC50: Homo sapiens, HCT-116, HCT116 cells, read-out: HCT116 antiproliferative activity pIC50 (converted). The procedure: Human colon carcinoma HCT116 cells obtained from the ATCC were cultured in McCoy's 5 A medium supplemented with 2 mM L-Glutamine, 50 μg/ml gentamicin and 10% heat inactivated fetal calf serum.
(§1) Resazurin was purchased from Aldrich (Prod. No. 199303). Potassium ferrocyanide, potassium ferricyanide, KH2PO4 and K2HPO4 were purchased from Sigma (Prod. Nos. P9387, P8131, P5655 and P8281, respectively).
(§2) Potassium Phosphate Buffer 0.1 M (PPB) was made as follows: 2.72 gram KH2PO4 and 13.86 gram K2HPO4 were dissolved in 500 ml milli-Q H2O, the pH was adjusted to pH 7.4 and the volume was brought to 1 litre with milli-Q H2O; the buffer was filter sterilised and stored at room temperature. Resazurin stock solution (PPB-A) was prepared fresh by dissolving 45 mg resazurin in 15 ml PBS. 30 mM potassium ferricyanide (PPB-B) was prepared by dissolving 0.987 gram potassium ferricyanide in 100 ml PPB. 30 mM potassium ferrocyanide (PPB-C) was prepared by dissolving 1.266 gram potassium ferrocyanide in 100 ml PPB.
(§3) Mixture of PPB-A, PPB-B and PPB-C was prepared by mixing equal volumes of the respective solutions. Resazurin work solution (herein termed “Alamar Blue” solution) was prepared by diluting said mixture 20×(vol/vol) in PPB and filter sterilising; the Alamar Blue solution could be kept at 4° C. for a maximum of 2 weeks.
(§4) For experiments in 384 wells plates the cells were seeded at a density of 4.5×10^3 cells/ml in Falcon 384-well culture plates (Life Technologies, Merelbeke, Belgium), black with clear bottom, in 45 μl culture medium. Cells were allowed to adhere to plastic for 24 hr. The tested compound was pre-diluted (1/50 in culture medium) and 5 μl pre-diluted compound was added to the wells. Following 4-day incubation, 10 μl of the Alamar Blue solution was added to each well and the cells were further incubated for 4 hrs (HCT116) or 24 hrs (PC-3) at 37° C. The fluorescence intensity was measured for each well on a Fluorescence plate reader (Fluorskan, Labsystems, 540 nm excitation and 590 nm emission)
(§5) The antiproliferative activity was calculated as percentage of remaining viable cells in treated versus control (untreated cells) conditions. Within an experiment, the result for each experimental condition is the mean of 3 replicate wells. When appropriate, the experiments were repeated to establish full concentration-response curves. When appropriate, IC50-values (concentration of the drug, needed to reduce cell growth to 50% of the control) were computed using probit analysis for graded data (Finney, D. J., Probit Analyses, 2nd Ed. Chapter 10, Graded Responses, Cambridge University Press, Cambridge 1962). Herein the effects of test compounds are expressed as pIC50 (the negative log value of the IC50-value) (see Table 2).

A further data set relates to PC-3 cells. The data set can be described thus: Antiproliferative activity, Alamar Blue assay, PC-3 cells. In kind it is cell-based, human. The note with it: for IC50: Homo sapiens, PC-3, PC3 cells, read-out: PC3 antiproliferative activity pIC50 (converted). On the procedure:
Human prostate cancer PC-3 cells obtained from the ATCC were cultured in HAM′S F12 medium supplemented with 1 mM Sodium Pyruvate, 1.5 g/L Sodium Bicarbonate, 50 μg/ml gentamicin, non-essential amino acids and 10% fetal calf serum.
as §1, §2, §3, §4, §5

A further data set relates to PC3 cells. Briefly: EB1 Comet (microtubule disruption) assay. The note with it: 1 hour treatment; for minimal effective concentration: Homo sapiens, PC-3, 1 h, read-out: EB1 pLAC (converted). It is filed as cell-based, human. On the procedure: The Eb1 Comet assay relies on the detection of the Eb1 protein at the plus end of polymerizing microtubules (Mimori-Kiyosue, 2000) using indirect immunofluorescence. Disruption of microtubule dynamics through de-polymerization or stabilization results in a de-localization of Eb1 from the growing microtubule ends and this is visualized by the disappearance of Eb1 containing cytoplasmic foci.
Briefly, human prostate cancer PC3 cells obtained from the American Type Culture Collection were grown in 96-well plates (Greiner, cat. no. 655090) in HAM's F12 medium as recommended by the provider (ATCC). The cells were treated for 1 hour at 37° C. with compounds dissolved in DMSO (0.6% final DMSO concentration). The culture medium was then removed by aspiration and the cells were fixed by adding cold methanol (−20 C). After a 15 min. incubation at −20 C, the cells were washed twice with DPBS (Gibco) containing 0.5% Triton X-100. Mouse Eb1 antibody (BD Transduction Laboratories, cat. no. 610534) was added to the cells (1/250 dilution in DPBS containing 1% BSA) and incubated overnight at room temperature. The antibody was subsequently removed and the cells washed twice with DPBS, 0.5% Triton X-100. Secondary goat anti-mouse antibody conjugated to Alexa 488 fluorescent dye (Molecular Probes) was added at a 1/500 dilution in DPBS, 1% BSA and incubated for 1 hour at 37 C. The cells were washed twice with DPBS, 0.5% Triton X-100 and then DPBS containing 0.5% Triton X-100 and 1/5000 Hoechst 33342 (Molecular Probes) was added. Microscopy based Eb1 foci visualization was carried out using an IN Cell Analyser 1000 (Amersham Biosciences) using a 20× objective. Compound dependent microtubule disruption was visually determined by the disappearance in Eb1 foci. The lowest active concentration (LAC) was determined as the concentration where Eb1 foci were absent in at least 50% of the treated cells.

T1 sequence (P09874 whole entry): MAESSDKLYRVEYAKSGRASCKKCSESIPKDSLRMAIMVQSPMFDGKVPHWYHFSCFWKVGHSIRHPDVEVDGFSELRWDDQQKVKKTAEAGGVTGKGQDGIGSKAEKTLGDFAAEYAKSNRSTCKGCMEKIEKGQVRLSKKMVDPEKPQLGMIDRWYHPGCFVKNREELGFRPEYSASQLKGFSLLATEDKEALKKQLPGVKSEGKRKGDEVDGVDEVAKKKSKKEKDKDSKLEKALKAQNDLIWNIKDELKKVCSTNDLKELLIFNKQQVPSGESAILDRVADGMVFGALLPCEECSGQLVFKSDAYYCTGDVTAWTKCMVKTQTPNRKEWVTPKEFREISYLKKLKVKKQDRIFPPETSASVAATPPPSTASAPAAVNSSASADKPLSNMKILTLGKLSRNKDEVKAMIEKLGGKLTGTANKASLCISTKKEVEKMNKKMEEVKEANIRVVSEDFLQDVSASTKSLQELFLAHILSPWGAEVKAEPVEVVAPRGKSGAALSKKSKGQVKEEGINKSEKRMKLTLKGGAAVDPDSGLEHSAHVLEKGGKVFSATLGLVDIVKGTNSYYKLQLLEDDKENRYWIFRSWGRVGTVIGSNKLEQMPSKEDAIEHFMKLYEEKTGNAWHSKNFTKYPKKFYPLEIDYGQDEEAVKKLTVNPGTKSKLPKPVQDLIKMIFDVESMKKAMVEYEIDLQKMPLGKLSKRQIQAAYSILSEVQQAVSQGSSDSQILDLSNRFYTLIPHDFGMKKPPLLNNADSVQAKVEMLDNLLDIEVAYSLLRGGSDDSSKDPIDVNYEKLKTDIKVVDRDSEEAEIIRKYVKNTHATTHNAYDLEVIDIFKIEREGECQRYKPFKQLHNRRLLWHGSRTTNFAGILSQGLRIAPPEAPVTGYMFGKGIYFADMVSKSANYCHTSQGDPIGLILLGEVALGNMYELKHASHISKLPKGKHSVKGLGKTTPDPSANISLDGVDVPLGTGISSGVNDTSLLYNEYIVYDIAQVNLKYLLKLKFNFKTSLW

Consider `CCc1cc2ccc(C(C)(C#N)Cc3cccc(CC#N)c3)cc2[nH]c1=O` (stereo not drawn), for which the melting point turned out to be 150 °C.
Still for that read-out and setting: in the case of `CCc1cc2ccc(C(C)(C#N)Cc3cccc(C#N)c3C)cc2[nH]c1=O` (stereo not drawn) [Compound 4] it was 174 °C; in that of `CCc1cc2ccc(C(C)(C#N)Cc3ccc(OCCCN4CCOCC4)c(C#N)c3)cc2[nH]c1=O` (stereo not drawn) [Compound 5], 153 °C.
Turning to `Cc1cc2ccc(C(C)(C#N)C3CCc4cc(Br)ccc43)cc2[nH]c1=O` (stereo not drawn) [Compound 243], the IC50 on Human PARP-1 enzyme is 0.316 µM. Further, the “HCT116 antiproliferative activity pIC50” value with HCT116 cells (HCT116 cells) came to 5.4. Besides, the “PC3 antiproliferative activity pIC50” value in the data set on PC-3 cells (PC3 cells) stood at 5.2. The “EB1 pLAC” value with PC3 cells was determined as 6.
In the case of `Cc1cc2ccc([C@](C)(C#N)[C@H]3CCCc4ccccc43)cc2[nH]c1=O` [Compound 383], the figures for the IC50 at Human PARP-1 enzyme, in the data set with HCT116 cells and with PC-3 cells were 0.501 µM, 0.501 µM and 1.26 µM, respectively. Also, in the data set on PC3 cells, the minimal effective concentration was 3.16 µM.
In the case of `Cc1cc2ccc(C(C)(C#N)Cc3cccc(C#CC(C)(C)O)n3)cc2[nH]c1=O` (stereo not drawn) [Compound 401], the IC50 was 0.398 µM on Human PARP-1 enzyme, 3.98 µM in the data set with HCT116 cells and 5.01 µM in the data set on PC-3 cells. In the data set with PC3 cells, the minimal effective concentration is 3.16 µM.

For the origin of these results see patent US8778966B2, “Quinolinone derivatives as PARP and tank inhibitors” (Janssen Pharmaceutica, NV, priority 2007, dated 2014).
